Assay results reported in patent US20230000807A1, “CBD ORAL FORMULATION” (Clear Lake Research, LLC, priority 2020, published 2023).

Tests used:
CB2 receptors [1] = molecular target: T1, CB2 receptors (Homo sapiens, UniProt P34972); test: receptor affinity; format: binding; details: estimated; times the affinity of CBD
Description: Because CB2 receptors have a low affinity for CBD, a relatively large amount of CBD should be used for efficacy. In a specific implementation, a thin film strip has 100 mg CBD. In alternatives, the oral thin film is as little as 20 mg CBD. Because CBD is a relatively expensive component, the ratio of CBD to other components is more prone to cost/efficacy trade-offs than other components of the formulation. Advantageously, a low does of CBD, of 50 mg or less, acts as a stimulant, making a 20 mg to 50 mg formulation appropriate for formulations that have a goal of reducing the amount of CBD necessary and meeting one of the goals of a concentration improver/mood enhancer, which is stimulation.
A greater proportion of CBD may be desirable for the purpose of binding to theorized CBD3 receptors or other presently poorly defined receptors with less affinity for CBD. A high dose of CBD, over 100 mg up to less than 250 mg can have a sedative effect that may be effective for certain individuals, though it is unlikely desirable to reach 250 mg. If CBD is replaced with by endocannabinoid with (an estimated) 1,000 times the affinity of CBD, such as 2-Lineoleoyl-glycerol (3443-82-1) or 2-Palmitolyl-glycerol (23470-00-0), an alternative implementation of the oral thin film could have 0.025 mg to 0.1 mg endocannabinoid, but the formulation would likely be much more expensive than CBD.

CB2 receptors [2] = molecular target: T1, CB2 receptors; details: cited from earlier work
[3] = applied topically; cited from earlier work

T1 sequence (P34972 whole entry): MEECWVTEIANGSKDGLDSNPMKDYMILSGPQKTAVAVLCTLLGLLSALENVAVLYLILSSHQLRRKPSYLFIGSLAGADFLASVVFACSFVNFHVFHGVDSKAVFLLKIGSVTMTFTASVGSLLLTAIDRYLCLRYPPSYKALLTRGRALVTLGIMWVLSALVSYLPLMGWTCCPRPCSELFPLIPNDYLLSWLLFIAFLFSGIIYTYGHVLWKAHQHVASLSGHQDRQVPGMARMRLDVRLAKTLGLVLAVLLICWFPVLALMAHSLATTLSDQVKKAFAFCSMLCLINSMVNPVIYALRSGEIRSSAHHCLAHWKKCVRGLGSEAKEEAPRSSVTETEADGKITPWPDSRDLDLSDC

Molecule: 2-Lineoleoyl-glycerol
- affinity relative to CBD (CB2 receptors [1]): ~1,000 times

Molecule: 2-Palmitolyl-glycerol
- affinity relative to CBD (CB2 receptors [1]): ~1,000 times

Molecule: C=C(C)[C@@H]1CCC(C)=C[C@H]1c1c(O)cc(CCCCC)cc1O [CBD, cannabidiol]
- affinity of CB2 receptors for the substance (CB2 receptors [2]): low affinity
- time to have a significant pain relief impact [3]: about 30 minutes
